From the NIST ThermoML archive (doi:10.1016/j.jct.2007.02.009)
Where “and” joins values, the source holds several entries; their conditions need not be identical. Equal entries are not always repeated. ± gives the expanded uncertainty stated by the source.

Assay: molar heat capacity at constant pressure
Details: 101.33 kPa

CN(C)C=O [dimethylformamide]
Crystal
Details | molar heat capacity at constant pressure [J/K/mol]
5 K | 0.221 ± 0.025
7.54 K | 0.753 ± 0.026
7.59 K | 0.763 ± 0.026
8.21 K | 0.931 ± 0.028
8.29 K | 0.964 ± 0.028
8.88 K | 1.19 ± 0.03
9.41 K | 1.46 ± 0.04
9.52 K | 1.55 ± 0.04
9.91 K | 1.74 ± 0.04
10 K | 1.79 ± 0.05
10.37 K | 1.995 ± 0.043
10.81 K | 2.263 ± 0.046
11.24 K | 2.533 ± 0.05
11.66 K | 2.776 ± 0.053
12.07 K | 2.996 ± 0.056
12.44 K | 3.216 ± 0.059
12.83 K | 3.574 ± 0.063
13.05 K | 3.741 ± 0.066
13.48 K | 4.017 ± 0.069
14.16 K | 4.518 ± 0.075
14.83 K | 5.048 ± 0.082
15 K | 5.187 ± 0.091
15.49 K | 5.622 ± 0.089
16.15 K | 6.115 ± 0.094
16.81 K | 6.702 ± 0.1
17.45 K | 7.307 ± 0.11
18.1 K | 7.9 ± 0.12
18.75 K | 8.506 ± 0.12
19.2 K | 8.88 ± 0.13
19.64 K | 9.354 ± 0.13
20 K | 9.678 ± 0.13
20.28 K | 9.986 ± 0.14
21.81 K | 11.31 ± 0.15
24.35 K | 13.98 ± 0.18
25 K | 14.64 ± 0.15
26.01 K | 15.67 ± 0.19
28.18 K | 17.9 ± 0.21
29.89 K | 19.58 ± 0.22
30 K | 19.63 ± 0.16
32.35 K | 21.81 ± 0.25
34.82 K | 24.08 ± 0.27
37.3 K | 26.24 ± 0.29
39.15 K | 27.83 ± 0.31
40 K | 28.52 ± 0.19
40.98 K | 29.35 ± 0.18
42.91 K | 30.92 ± 0.19
43.45 K | 31.29 ± 0.19
44.78 K | 32.3 ± 0.2
45.93 K | 33.16 ± 0.2
49.17 K | 35.67 ± 0.21
50 K | 36.34 ± 0.23
51.08 K | 37.1 ± 0.22
53.56 K | 38.97 ± 0.23
56.03 K | 40.81 ± 0.24
58.51 K | 42.63 ± 0.25
60 K | 43.49 ± 0.25
60.98 K | 44.1 ± 0.25
63.46 K | 45.65 ± 0.26
65.93 K | 47.18 ± 0.27
68.4 K | 49.19 ± 0.28
70 K | 49.95 ± 0.28
70.88 K | 50.36 ± 0.28
73.21 K | 52.04 ± 0.29
75.22 K | 52.99 ± 0.3
77.32 K | 54.31 ± 0.3
79.34 K | 55.1 ± 0.31
80 K | 55.45 ± 0.3
82.06 K | 56.51 ± 0.31
84.87 K | 57.9 ± 0.32
87.85 K | 59.4 ± 0.33
90 K | 60.47 ± 0.52
90.82 K | 60.89 ± 0.44
93.8 K | 62.3 ± 0.45
96.76 K | 63.67 ± 0.45
99.73 K | 65.16 ± 0.46
100 K | 65.36 ± 0.53
102.7 K | 66.55 ± 0.46
105.67 K | 67.8 ± 0.47
106.15 K | 68.12 ± 0.47
108.64 K | 69.18 ± 0.47
109.01 K | 69.31 ± 0.47
110 K | 69.68 ± 0.54
111.61 K | 70.34 ± 0.48
111.97 K | 70.65 ± 0.48
114.57 K | 71.6 ± 0.48
114.94 K | 71.75 ± 0.48
117.89 K | 73.04 ± 0.48
120 K | 73.76 ± 0.55
120.75 K | 74.11 ± 0.49
123.71 K | 75.3 ± 0.49
126.68 K | 76.26 ± 0.5
129.64 K | 77.49 ± 0.5
130 K | 77.82 ± 0.56
132.61 K | 78.6 ± 0.5
138.24 K | 80.9 ± 0.51
140 K | 81.78 ± 0.56
146.91 K | 84.72 ± 0.53
149.76 K | 85.72 ± 0.53
150 K | 85.56 ± 0.57
152.73 K | 86.72 ± 0.53
155.69 K | 87.47 ± 0.54
158.66 K | 88.47 ± 0.54
160 K | 89.05 ± 0.58
161.62 K | 89.38 ± 0.54
164.59 K | 90.46 ± 0.55
167.56 K | 91.54 ± 0.55
170 K | 92.62 ± 0.59
170.53 K | 92.79 ± 0.56
173.49 K | 94.53 ± 0.56
178.4 K | 96.61 ± 0.57
180 K | 96.36 ± 0.59
184.4 K | 99.44 ± 0.6
184.65 K | 101.2 ± 0.6
190 K | 100.5 ± 0.6
191.1 K | 105.5 ± 0.6
191.8 K | 105 ± 0.6
198.9 K | 124.1 ± 0.7
200 K | 104.6 ± 0.6
200.5 K | 130.6 ± 0.7
201.1 K | 139.5 ± 0.8
201.51 K | 150.5 ± 0.9
210 K | 107.7 ± 0.6
212.86 K | 108.1 ± 0.6

Liquid, Vacuum adiabatic calorimetry
Details | molar heat capacity at constant pressure
212.86 K | 141.4 ± 0.3 J/K/mol
213 K | 142.4 ± 0.6 J/K/mol
215.3 K | 141.5 ± 0.6 J/K/mol
216.03 K | 141.8 ± 0.6 J/K/mol
217.78 K | 141.7 ± 0.6 J/K/mol
217.98 K | 142 ± 0.6 J/K/mol
220 K | 141.9 ± 0.3 J/K/mol
220.95 K | 141.8 ± 0.6 J/K/mol
222.56 K | 142 ± 0.6 J/K/mol
223.91 K | 142.2 ± 0.6 J/K/mol
225.22 K | 142.2 ± 0.6 J/K/mol
226.86 K | 142.2 ± 0.6 J/K/mol
228.18 K | 142.4 ± 0.6 J/K/mol
229.81 K | 142.5 ± 0.6 J/K/mol
230 K | 142.5 ± 0.3 J/K/mol
230.54 K | 142.5 ± 0.6 J/K/mol
231.13 K | 142.7 ± 0.6 J/K/mol
232.77 K | 142.5 ± 0.6 J/K/mol
233.19 K | 142.9 ± 0.6 J/K/mol
235.55 K | 142.5 ± 0.6 J/K/mol
235.72 K | 142.8 ± 0.6 J/K/mol
236.14 K | 142.7 ± 0.6 J/K/mol
238.66 K | 143 ± 0.6 J/K/mol
238.73 K | 143.2 ± 0.6 J/K/mol
239.07 K | 143 ± 0.6 J/K/mol
240 K | 143 ± 0.3 J/K/mol
241.6 K | 143.1 ± 0.6 J/K/mol
242.25 K | 143.5 ± 0.6 J/K/mol
244.54 K | 143.3 ± 0.6 J/K/mol
245.77 K | 143.3 ± 0.6 J/K/mol
247.48 K | 143.4 ± 0.6 J/K/mol
249.28 K | 143.4 ± 0.6 J/K/mol
250 K | 143.6 ± 0.3 J/K/mol
250.41 K | 143.5 ± 0.6 J/K/mol
252.78 K | 143.7 ± 0.6 J/K/mol
253.34 K | 143.5 ± 0.6 J/K/mol
256.26 K | 143.9 ± 0.6 J/K/mol
256.28 K | 144.1 ± 0.6 J/K/mol
259.17 K | 144 ± 0.6 J/K/mol
260 K | 144.2 ± 0.3 J/K/mol
261.17 K | 144.3 ± 0.6 J/K/mol
262.1 K | 144.3 ± 0.6 J/K/mol
262.79 K | 144.5 ± 0.6 J/K/mol
263.79 K | 144.4 ± 0.6 J/K/mol
265.01 K | 144.6 ± 0.6 J/K/mol
266.68 K | 144.8 ± 0.6 J/K/mol
267.92 K | 144.6 ± 0.6 J/K/mol
269.56 K | 145 ± 0.6 J/K/mol
270 K | 144.9 ± 0.3 J/K/mol
270.82 K | 144.8 ± 0.6 J/K/mol
272.44 K | 145.3 ± 0.6 J/K/mol
273.71 K | 145 ± 0.6 J/K/mol
275.31 K | 145.4 ± 0.6 J/K/mol
276.6 K | 145.4 ± 0.6 J/K/mol
278.16 K | 145.6 ± 0.6 J/K/mol
279.47 K | 145.6 ± 0.6 J/K/mol
280 K | 145.9 ± 0.4 J/K/mol
281.01 K | 146.1 ± 0.6 J/K/mol
283.85 K | 146.6 ± 0.6 J/K/mol
286.68 K | 146.7 ± 0.6 J/K/mol
289.51 K | 147 ± 0.6 J/K/mol
290 K | 147.1 ± 0.4 J/K/mol
292.32 K | 147.4 ± 0.6 J/K/mol
298.15 K | 148.2 ± 0.6 J/K/mol and 148.2 ± 0.4 J/K/mol
300 K | 148.5 ± 0.4 J/K/mol
301.5 K | 148.7 ± 0.6 J/K/mol
305 K | 149 ± 0.4 J/K/mol
